Results: BindingDB's records for doi:10.1021/acsmedchemlett.8b00333 (University of Calabria, 2019)
pEC50: −log10 of the molar value.

Assay: Inverse agonist activity at GPR55 in human MDA-MB-231 cells assessed as reduction in cell viability incubated for 24 hrs by MTT assay

COc1ccc(OC)c2c1C(=O)C(Cl)=C(N1CCOCC1)C2=O and COc1ccc(OC)c2c1C(=O)C(Cl)=C(N1CCCCC1)C2=O cannot be ordered by pEC50: under 5.00 for the first, under 5.00 for the second.

CCCCN(CCCC)C1=C(Cl)C(=O)c2c(O)ccc(O)c2C1=O and CCN(CC)C1=C(Cl)C(=O)c2c(O)ccc(O)c2C1=O cannot be ordered by pEC50: under 4.70 for the first, under 4.70 for the second.

Going from O=C1C(Cl)=C(N2CCCC2)C(=O)c2c(O)ccc(O)c21 to O=C1C(Cl)=C(N2CCCCC2)C(=O)c2c(O)ccc(O)c21, the pEC50 rises from under 5.00 to 5.80.

Compared with O=C1C(Cl)=C(N2CCOCC2)C(=O)c2c(O)ccc(O)c21, COc1ccc(OC)c2c1C(=O)C(Cl)=C(Cl)C2=O [2,3-Dichloro-5,8-dimethoxy-[1,4]naphthoquinone] is lower in pEC50: 5.57 for the first, under 4.70 for the second. The first is the more potent here.
